Measured values as given in the NIST ThermoML archive (doi:10.1021/je050317k).
Numbers after ± are expanded uncertainties. Blank lines part the entries; values can stand above or below the molecule they belong to.

Details: Liquid

SMILES: CC(Cl)CCl (stereo unspecified) [1,2-dichloropropane]
vapor or sublimation pressure (333.15 K): 30.14 ± 0.27 kPa
vapor or sublimation pressure (353.15 K): 61.07 ± 0.44 kPa

SMILES: OCCCCO [1,4-butanediol]
vapor or sublimation pressure (383.15 K): 0.664 ± 0.064 kPa

vapor or sublimation pressure (333.15 K): 103.15 ± 1.3 kPa
vapor or sublimation pressure (373.1 K): 316.61 ± 2.2 kPa
SMILES: C=CCCC=C [1,5-hexadiene]

vapor or sublimation pressure (333.15 K): 37.73 ± 0.44 kPa
vapor or sublimation pressure (393.15 K): 249.59 ± 1.8 kPa
vapor or sublimation pressure (453.15 K): 939.9 ± 6 kPa
SMILES: CC(=O)OC(C)C [1-methylethyl ethanoate]

vapor or sublimation pressure (298.15 K): 352.39 ± 2.8 kPa
vapor or sublimation pressure (348.15 K): 1212.7 ± 7.9 kPa
SMILES: CC(C)C [2-methylpropane]

SMILES: C=CCCl [3-chloro-1-propene]
vapor or sublimation pressure (333.15 K): 164.65 ± 1.6 kPa
vapor or sublimation pressure (373.1 K): 489.25 ± 3.4 kPa

SMILES: Cl/C=C\CCl [(Z)-1,3-dichloro-1-propene]
vapor or sublimation pressure (333.15 K): 22.61 ± 0.25 kPa
vapor or sublimation pressure (353.15 K): 47.29 ± 0.42 kPa

vapor or sublimation pressure (333.15 K): 49.16 ± 0.53 kPa
vapor or sublimation pressure (393.15 K): 297.37 ± 2.1 kPa
vapor or sublimation pressure (453.15 K): 1096.9 ± 7 kPa
SMILES: CC#N [acetonitrile]

vapor or sublimation pressure (373.1 K): 3.573 ± 0.091 kPa
vapor or sublimation pressure (433.15 K): 32.02 ± 0.24 kPa
SMILES: CC(=O)c1ccccc1 [acetophenone]

SMILES: C=CCl [chloroethene]
vapor or sublimation pressure (273.1 K): 172 ± 1.8 kPa
vapor or sublimation pressure (313.15 K): 601.5 ± 4 kPa

SMILES: C1CO1 [oxirane]
vapor or sublimation pressure (298.15 K): 174.71 ± 1.6 kPa
vapor or sublimation pressure (348.15 K): 766.7 ± 5 kPa

vapor or sublimation pressure (373.1 K): 5.506 ± 0.12 kPa
vapor or sublimation pressure (433.15 K): 53.23 ± 0.37 kPa
SMILES: Oc1ccccc1 [phenol]

SMILES: O=C1CCCO1 [γ-butyrolactone]
vapor or sublimation pressure (383.15 K): 5.15 ± 0.087 kPa
